Experimental data reported in patent publication US11980616B2, “Treating liver disease by selectively eliminating senescent cells” (Buck Institute for Research on Aging, priority 2014, dated 2024).

Columns and labels:
[1] = system: 3MR or INK-ATTAC mice exposed to cigarette smoke; test: Chronic cigarette smoke exposure model (COPD); format: in vivo, mouse; conditions: after 2 months of cigarette smoke exposure; vs untreated controls
Procedure: In a second animal model for pulmonary diseases (e.g., COPD), mice were exposed to cigarette smoke. The effect of a senolytic agent on the mice exposed to smoke is assessed by senescent cell clearance, lung function, and histopathology.
Six week-old 3MR (n=35) or INK-ATTAC (n=35) mice were chronically exposed to cigarette smoke generated from a Teague TE-10 system, an automatically-controlled cigarette smoking machine that produces a combination of side-stream and mainstream cigarette smoke in a chamber, which is transported to a collecting and mixing chamber where varying amounts of air is mixed with the smoke mixture. The COPD protocol was adapted from the COPD core facility at Johns Hopkins University (at Internet site web.jhu.edu/Biswal/exposure_core/copd.html#Cigarette_Smoke) (Rangasamy et al., 2004, J. Clin. Invest. 114:1248-1259; Yao et al., 2012, J. Clin. Invest. 122:2032-2045). Mice received a total of 6 hours of cigarette smoke exposure per day, 5 days a week for 6 months. Each lighted cigarette (3R4F research cigarettes containing 10.9 mg of total particulate matter (TPM), 9.4 mg of tar, and 0.726 mg of nicotine, and 11.9 mg carbon monoxide per cigarette [University of Kentucky, Lexington, KY]) was puffed for 2 seconds and once every minute for a total of 8 puffs, with the flow rate of 1.05 L/min, to provide a standard puff of 35 cm^3. The smoke machine was adjusted to produce a mixture of side stream smoke (89%) and mainstream smoke (11%) by smoldering 2 cigarettes at one time. The smoke chamber atmosphere was monitored for total suspended particulates (80-120 mg/m^3) and carbon monoxide (350 ppm). Beginning at day 7, (10) INK-ATTAC and (10) 3MR mice were treated with AP20187 (3× per week) or gancyclovir (5 consecutive days of treatment followed by 16 days off drug, repeated until the end of the experiment), respectively. An equal number of mice received the corresponding vehicle. The remaining […] (15 INK-ATTAC and 15 3MR) were evenly split with 5 of each genetically modified strain placed into three different treatment groups. One group (n=10) received Nutlin-3A (25 mg/kg dissolved in 10% DMSO/3% Tween-20 in PBS, treated 14 days consecutively followed by 14 days off drug, repeated until the end of the experiment). […]
After two months of cigarette smoke exposure, lung function was assessed by monitoring oxygen saturation using the MouseSTAT PhysioSuite pulse oximeter (Kent Scientific). […] Mice were monitored for 30 seconds and the average peripheral capillary oxygen saturation (SpO2) measurement over this duration was calculated.

[2] = system: INK-ATTAC transgenic mice; test: Cardiac stress test (isoproterenol) in aged INK-ATTAC transgenic mice; format: in vivo, mouse
Procedure: To study the impact of senescent cell clearance on health and lifespan, cohorts of INK-ATTAC transgenic mice on FVB×129Sv/E×C57BL/6 mixed or C57BL/6 pure genetic backgrounds were established. At 12 months age, one half of each cohort was injected three times/week with AP20187 to induce apoptosis of p16-positive senescent cells (0.2 mg/kg and 2 mg/kg AP20187 for the mixed and the pure C57BL/6 cohorts, respectively), while the other half of each cohort received vehicle. At 18 months, subsets of male and female mice from each cohort were subjected to a cardiac stress test, in which mice were injected with a lethal dose of isoproterenol (680 mg/kg) and the time to cardiac arrest was recorded.
Cardio-protective signaling pathways are known to provide tolerance to metabolic stresses such as ischemia and hypoxia decline (Granfeldt et al., 2009, Cardiovasc. Res. 83:234-246). However, cardio-protective signaling deteriorates with aging, thus decreasing the functional and adaptive reserve capacity of the heart (Ogawa et al., 1992, Circulation 86:494-503; Wiebe et al., 1998, Clin. J. Sport Med. 8:272-279). ATP-dependent K channels (KATP) play a central role in cardio-protective signaling (Gross and Auchampach, 1992, Cardiovasc. Res. 26:1011-1016). These KATP channels are composed of the pore-forming subunit Kir6.2/Kir6.1, the regulatory subunit Sur2a, and additional accessory proteins. KATP channels are thought to decline with aging due to decreased expression of Sur2a (Du et al., 2006, FASEB J. 20:1131-1141; Jovanovic and Jovanovic, 2009, Curr. Opin. Pharmacol. 9:189-193; Ranki et al., 2002, Mech. Ageing Dev. 123:695-705). […] Thus, the contribution of senescent cells to the age-related decline in Sur2a expression was examined in 18 month old AP20187-treated and vehicle treated mice from subjected to the cardiac stress test previously described. […] Taken together, these experiments indicate that the presence of senescent cells with aging negatively impacts KATP channel function, and senescent cell clearance is an effective therapy to counteract this deterioration.

senescent IMR90 cells = test: CellTiter-Glo cell viability assay, senescent IMR90; format: cell-based, human; conditions: Homo sapiens, IMR-90, 72 h; senescent IMR90, 3 days
Procedure: (§1) To determine whether ABT-263 is selectively toxic to senescent cells compared to non-senescent cells, a cell viability assay was used to assess cell survival following treatment with ABT-263. IMR90 cells (human primary lung fibroblasts (IMR90) (IMR-90 (ATCC® CCL-186™, Manassas, Virginia) were seeded in six well plates, and cells were induced to senescence with 10 Gy of ionizing radiation (IR) (Day 0). The media was refreshed every 3 days. The senescent phenotype is allowed to develop for 7 days at which point a cell count was made to determine the baseline number of cells followed by seeding into 96-well plates. On day 8, the senescent cells (irradiated) and the non-senescent cells (the non-radiated cells), were exposed to serial dilutions of ABT-263 for a period of 3 days. ABT-263 concentrations ranged from 0.5 nM to 3 μM. Each condition was seeded in triplicate.
(§2) After three days of treatment (Day 11), cells were assayed for cell survival using the commercially available CellTiter-Glo® (CTG) Luminescent Cell Viability Assay (Promega Corporation, Madison, Wisconsin). The assay determines the number of viable cells in culture based on the quantitation of ATP present which is an indicator of metabolically active cells.
The experiments performed for assessing the effect of these other Bcl-2 inhibitors were performed essentially as described in Example 7. Cells were exposed to ABT-199 at serial dilution concentrations ranging from 15 nM to 100 μM (FIGS. 26 and 27). Cells were exposed to Obatoclax at concentrations ranging from 1.4 nM to 9 μM (FIG. 28).
IMR90 cells were induced to senescence by irradiation as described in Example 7. The irradiated IMR90 cells and non-senescent IMR90 cells were then exposed to a compound called ML214 that is a Bcl-2A1 specific inhibitor.
The effect of ABT-263 in combination with the Akt inhibitor MK-2206 was tested for selective toxicity of senescent cells compared to non-senescent cells in IMR90 cells. The methods of Example 7 were repeated except that cell cultures were exposed to 10 nM MK-2206 (Selleckem, Cat #S1078) in addition to serial dilutions of ABT-263.

[3] = system: non-senescent IMR90 cells; test: CellTiter-Glo cell viability assay, non-senescent IMR90; format: cell-based; conditions: Homo sapiens, IMR-90, 72 h; non-senescent IMR90, 3 days
Procedure: as §1, §2
The experiments performed for assessing the effect of these other Bcl-2 inhibitors were performed essentially as described in Example 7. […]

p16-3MR animals = test: Senescence induced by chemotherapeutic drugs in p16-3MR animals (luminescence); format: in vivo, mouse; conditions: p<0.05; pomalidomide 5 mg/kg, lenalidomide 50 mg/kg 7 daily injections; doxorubicin 10 mg/kg 2-4 injections
Procedure: To examine senescence induced by different chemotherapeutic drugs, groups of p16-3MR animals (n=4) were treated with thalidomide (100 mg/kg; 7 daily injections); romidepsin (1 mg/kg; 3 injections); pomalidomide (5 mg/kg; 7 daily injections); lenalidomide (50 mg/kg; 7 daily injections); 5-azacytidine (5 mg/kg; 3 injections) and compared with doxorubicin (10 mg/kg, 2-4 injections over 7 days).

[4] = system: myocardial damage in patients; conditions: drug product inserts; cited from earlier work

In the case of `CC[C@H](C(=O)N1CCCC[C@H]1C(=O)O[C@H](CCc1ccc(OC)c(OC)c1)c1cccc(OCC(=O)NCC(CNC(=O)COc2cccc([C@@H](CCc3ccc(OC)c(OC)c3)OC(=O)[C@@H]3CCCCN3C(=O)[C@@H](CC)c3cc(OC)c(OC)c(OC)c3)c2)CN(C)C)c1)c1cc(OC)c(OC)c(OC)c1` [AP20187], the SpO2 levels [1] is reported as “statistically significant increases”, the “Time to cardiac arrest after lethal isoproterenol” value ([2]; 0.2 or 2 mg/kg three times/week from 12 to 18 months, isoproterenol 680 mg/kg) is reported as “sustained youthful cardio-protection” and the Sur2a expression ([2]; 18-month-old female mice) is reported as “sustained Sur2a expression”. For the same molecule, the Median lifespan ([2]; INK-ATTAC mice) was “median lifespan extension”.
With `COC1=CC(c2cc3ccccc3[nH]2)=N/C1=C\c1[nH]c(C)cc1C` [Obatoclax] the IC50 (senescent IMR90 cells) was 125 nM and the IC50 [3] was 75 nM.
For `COc1cccc2c1C(=O)c1c(O)c3c(c(O)c1C2=O)C[C@@](O)(C(=O)CO)C[C@@H]3O[C@H]1C[C@H](N)[C@H](O)[C@H](C)O1` [doxorubicin], the “Level of senescent cells (luminescence)” value (p16-3MR animals) is listed as “significant levels of senescent cells” and the “Total lifetime dose above which myocardial damage may lead to congestive heart failure” value [4] is listed as “exceeds 550 mg/m^2”.
With `Nc1cccc2c1CN(C1CCC(=O)NC1=O)C2=O` (stereo not shown) [lenalidomide] the “Level of senescent cells (luminescence)” value (p16-3MR animals) was “significant levels of senescent cells”.
For `Nc1cccc2c1C(=O)N(C1CCC(=O)NC1=O)C2=O` (stereo not shown) [omalidomide], the “Level of senescent cells (luminescence)” value (p16-3MR animals) was “significant levels of senescent cells”.
